Data taken from patent publication US20230293412A1, “SHAMPOOS AND METHODS OF PREPARING AND USING THE SAME” (SHANDONG BENZHEN COSMETICS CO., LTD, priority 2020, published 2023).

Key:
[1] = Surface tension of surfactants diluted 200 and 6000 times; type: physicochemical; conditions: 25° C.; for Surface tension 1:200: surfactant diluted 200 times with triple distilled water; for Surface tension 1:6000: surfactant diluted 6000 times with triple distilled water
Experimental: We classify surfactants into three types: anionic surfactants, zwitterionic surfactants, and nonionic surfactants. Experimental studies on the surface tension and acute toxicity of fish were conducted on the above-mentioned main surfactants and other kinds of surfactants used in shampoo, bath and other care products.
(§1) Test method. The experimental environment is at a constant temperature of 25° C., the surfactants is diluted 200 and 6000 times with triple distilled water. The surface tension is tested by JY-200C full-automatic interfacial tensiometer, referring to (GB5545 Surfactant Determination of surface tension by pulling up liquid film). The fish acute toxicity test is carried out tin the aqueous solution diluted 6000 times with surfactant, referencing to (GB/T 21281-2007 fish acute toxicity test classification test method of hazardous chemicals).

fish = assay: Fish acute toxicity test of surfactants; type: in vivo; conditions: for survival time: fish in aqueous solution of surfactant diluted 6000 times, 25° C.; for fish survival: fish in surfactant solution at 1:6000
Experimental: as §1

| Molecule | Surface tension 1:200 [1] [mN/m] | Surface tension 1:6000 [1] [mN/m] | survival time (fish) [min] | fish survival (fish) [h] |
| --- | --- | --- | --- | --- |
| Methyl glucose dioleate [DOE-120] | 42.6 | 49.4 | >1440 | 24 |
| Sodium secondary alkyl sulfonate [SAS] | 31.3 | 41.5 | 41 | – |
| Fatty alcohol polyoxyethylene ether [AEO-3] | 27.2 | 27.3 | 27 | – |
| Alkyl glycoside (C8-C10) [APG1] | 28.3 | 47.3 | 33 | – |
| CCCCCCCCCCCC(=O)N(C)CC(=O)[O-].[Na+] [Shampoo 4202, Sodium lauroyl sarcosinate (30%)] | 27.9 | 64.8 | >1440 | 24 |
| CCCCCCCCCCCCOS(=O)(=O)[O-].[Na+] [Shampoo K12, Sodium lauryl sulfate] | 35.0 | 40.8 | – | – |
| CCCCCCCCCCCCOS(=O)(=O)O.N [Shampoo K12-A, ammonium lauryl sulfate] | 26.7 | 38.9 | – | – |
| Sodium α-alkenyl sulfonate [AOS] | 31.8 | 41.8 | – | – |
| ammonium laureth ether sulfate [AES-A] | 34.9 | 32.9 | – | – |
| Fatty alcohol polyoxyethylene ether [AEO-7] | 27.6 | 29.3 | 21 | – |
| Imidazoline (import) [ZMLj] | 28.5 | 31.3 | 64 | – |
| Sulfobetaine [ASB] | 35.3 | 47.5 | 42 | – |
| Alkyl glycoside (import) [APGj] | 28.1 | 28.6 | 25 | – |
| Lauramide propyl amine oxide [Shampoo 4501] | 30.5 | 31.2 | 15 | – |
| Sodium Cocoyl Isethionate-85 [SCI-85] | 30.6 | 42.8 | 24 | – |
| Coconut oil fatty acid diethanolamide [Shampoo 6501] | 26.0 | 27.6 | 44 | – |
| Alkyl glycoside (C12-C14) [APG2] | 28.2 | 28.5 | 25 | – |
| Fatty alcohol polyoxyethylene ether [AEO-9] | 30.2 | 30.4 | 18 | – |
| sodium laureth ether sulfate [AES] | 36.4 | 36.2 | – | – |
| Imidazoline [MZL] | 29.1 | 45.5 | 134 | – |
| Sodium dodecyl ether phosphate [Shampoo 1211] | 35.2 | 40.5 | 284 | – |
| cocamidopropyl betaine [CAB] | 31.3 | 32.4 | 27 | – |
